Data from PubChem BioAssay (NCI).
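All cell lines were grown in 96-well plates and treated with compound for 48 hours. TGI marks complete inhibition of growth.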

What was measured:
Experiment in all cases: growth of human tumour cells (NCI), 48 h
786-0 renal = system: 786-0 renal
A498 renal = system: A498 renal
A549 NSCLC = system: A549 NSCLC
ACHN renal = system: ACHN renal
BT-549 breast = system: BT-549 breast
CAKI-1 renal = system: CAKI-1 renal
CCRF-CEM leukemia = system: CCRF-CEM leukemia
COLO 205 colon = system: COLO 205 colon
DU-145 prostate = system: DU-145 prostate
EKVX NSCLC = system: EKVX NSCLC
HCC-2998 colon = system: HCC-2998 colon
HCT-116 colon = system: HCT-116 colon
HCT-15 colon = system: HCT-15 colon
HL-60(TB) leukemia = system: HL-60(TB) leukemia
HOP-62 NSCLC = system: HOP-62 NSCLC
HOP-92 NSCLC = system: HOP-92 NSCLC
HS 578T breast = system: HS 578T breast
HT29 colon = system: HT29 colon
IGROV1 ovarian = system: IGROV1 ovarian
K-562 leukemia = system: K-562 leukemia
KM12 colon = system: KM12 colon
LOX IMVI melanoma = system: LOX IMVI melanoma
M14 melanoma = system: M14 melanoma
MALME-3M melanoma = system: MALME-3M melanoma
MCF7 breast = system: MCF7 breast
MDA-MB-231 breast = system: MDA-MB-231 breast
MDA-MB-435 = system: MDA-MB-435
MDA-N = system: MDA-N
MOLT-4 leukemia = system: MOLT-4 leukemia
NCI-H226 lung = system: NCI-H226 lung
NCI-H23 lung = system: NCI-H23 lung
NCI-H460 lung = system: NCI-H460 lung
NCI-H522 lung = system: NCI-H522 lung
NCI/ADR-RES ovarian = system: NCI/ADR-RES ovarian
OVCAR-3 ovarian = system: OVCAR-3 ovarian
OVCAR-4 ovarian = system: OVCAR-4 ovarian
OVCAR-5 ovarian = system: OVCAR-5 ovarian
OVCAR-8 ovarian = system: OVCAR-8 ovarian
PC-3 prostate = system: PC-3 prostate
RPMI-8226 leukemia = system: RPMI-8226 leukemia
RXF 393 renal = system: RXF 393 renal
SF-268 CNS = system: SF-268 CNS
SF-295 CNS = system: SF-295 CNS
SK-MEL-2 melanoma = system: SK-MEL-2 melanoma
SK-MEL-28 melanoma = system: SK-MEL-28 melanoma
SK-MEL-5 melanoma = system: SK-MEL-5 melanoma
SK-OV-3 ovarian = system: SK-OV-3 ovarian
SN12C renal = system: SN12C renal
SNB-19 CNS = system: SNB-19 CNS
SNB-75 CNS = system: SNB-75 CNS
SW-620 colon = system: SW-620 colon
T-47D breast = system: T-47D breast
TK-10 renal = system: TK-10 renal
U251 CNS = system: U251 CNS
UACC-257 melanoma = system: UACC-257 melanoma
UACC-62 melanoma = system: UACC-62 melanoma
UO-31 renal = system: UO-31 renal
SF-539 CNS = system: SF-539 CNS
SR leukemia = system: SR leukemia

`COc1ncc(C#CC(=O)c2ccccc2OC)c(OC)n1` was tested, and the TGI (786-0 renal) was 3.69 µM, the TGI (A498 renal) was 35.2 µM and the TGI (A549 NSCLC) was 19 µM. For the same compound, the TGI (ACHN renal) was 3.27 µM, the TGI (BT-549 breast) was 5.21 µM and the TGI (CAKI-1 renal) was 4.17 µM. For the same compound, the TGI (CCRF-CEM leukemia) was 1.58 µM, the TGI (COLO 205 colon) was 4.12 µM and the TGI (DU-145 prostate) was 12.3 µM. It also gave a TGI (EKVX NSCLC) of 10.3 µM, a TGI (HCC-2998 colon) of 13 µM and a TGI (HCT-116 colon) of 9.72 µM. The TGI (HCT-15 colon) was 2.08 µM, the TGI (HL-60(TB) leukemia) was 4.63 µM and the TGI (HOP-62 NSCLC) was 40.5 µM. For the same compound, the TGI (HOP-92 NSCLC) was 4.47 µM, the TGI (HS 578T breast) was greater than 32.4 µM and the TGI (HT29 colon) was 3.84 µM. The TGI (IGROV1 ovarian) was 3.98 µM, the TGI (K-562 leukemia) was greater than 42.9 µM and the TGI (KM12 colon) was 18.4 µM. For the same compound, the TGI (LOX IMVI melanoma) was 0.794 µM, the TGI (M14 melanoma) was 5.05 µM and the TGI (MALME-3M melanoma) was 3.36 µM. For the same compound, the TGI (MCF7 breast) was 2.91 µM, the TGI (MDA-MB-231 breast) was 2.75 µM and the TGI (MDA-MB-435) was 8.44 µM. It also gave a TGI (MDA-N) of 3.41 µM, a TGI (MOLT-4 leukemia) of 1.61 µM and a TGI (NCI-H226 lung) of 3.35 µM. The TGI (NCI-H23 lung) was 7.56 µM, the TGI (NCI-H460 lung) was 15.7 µM and the TGI (NCI-H522 lung) was 2.21 µM. For the same compound, the TGI (NCI/ADR-RES ovarian) was 4.78 µM, the TGI (OVCAR-3 ovarian) was 8.27 µM and the TGI (OVCAR-4 ovarian) was 20.7 µM. It also gave a TGI (OVCAR-5 ovarian) of 8.23 µM, a TGI (OVCAR-8 ovarian) of 5.05 µM and a TGI (PC-3 prostate) of 4.3 µM. It also gave a TGI (RPMI-8226 leukemia) of 9.65 µM, a TGI (RXF 393 renal) of 3.32 µM and a TGI (SF-268 CNS) of 12.2 µM. It also gave a TGI (SF-295 CNS) of 39.7 µM, a TGI (SK-MEL-2 melanoma) of 6.4 µM and a TGI (SK-MEL-28 melanoma) of 8.06 µM. For the same compound, the TGI (SK-MEL-5 melanoma) was 5.85 µM, the TGI (SK-OV-3 ovarian) was greater than 60.4 µM and the TGI (SN12C renal) was 1.91 µM. It also gave a TGI (SNB-19 CNS) of 29.3 µM, a TGI (SNB-75 CNS) of 10.2 µM and a TGI (SW-620 colon) of 2.73 µM. For the same compound, the TGI (T-47D breast) was 22.9 µM, the TGI (TK-10 renal) was 2.62 µM and the TGI (U251 CNS) was 8.33 µM. The TGI (UACC-257 melanoma) was 8.79 µM, the TGI (UACC-62 melanoma) was 7.49 µM and the TGI (UO-31 renal) was 2.97 µM.
`Cn1c2ccccc2n2c3ccccc3c(=S)c(C#N)c12` gave a TGI (786-0 renal) greater than 100 µM, a TGI (A498 renal) greater than 100 µM and a TGI (A549 NSCLC) greater than 100 µM. The TGI (ACHN renal) was greater than 100 µM, the TGI (BT-549 breast) was greater than 100 µM and the TGI (CAKI-1 renal) was greater than 100 µM. For the same compound, the TGI (CCRF-CEM leukemia) was greater than 100 µM, the TGI (DU-145 prostate) was greater than 100 µM and the TGI (EKVX NSCLC) was greater than 100 µM. For the same compound, the TGI (HCC-2998 colon) was greater than 100 µM, the TGI (HCT-116 colon) was greater than 100 µM and the TGI (HCT-15 colon) was greater than 100 µM. For the same compound, the TGI (HL-60(TB) leukemia) was greater than 100 µM, the TGI (HOP-62 NSCLC) was greater than 100 µM and the TGI (HS 578T breast) was greater than 100 µM. It also gave a TGI (HT29 colon) greater than 100 µM, a TGI (IGROV1 ovarian) greater than 100 µM and a TGI (K-562 leukemia) greater than 100 µM. For the same compound, the TGI (KM12 colon) was greater than 100 µM, the TGI (LOX IMVI melanoma) was greater than 100 µM and the TGI (M14 melanoma) was greater than 100 µM. For the same compound, the TGI (MCF7 breast) was greater than 100 µM, the TGI (MDA-MB-435) was greater than 100 µM and the TGI (MDA-N) was greater than 100 µM. The TGI (MOLT-4 leukemia) was greater than 100 µM, the TGI (NCI-H226 lung) was greater than 100 µM and the TGI (NCI-H23 lung) was greater than 100 µM. For the same compound, the TGI (NCI-H460 lung) was greater than 100 µM, the TGI (NCI-H522 lung) was greater than 100 µM and the TGI (NCI/ADR-RES ovarian) was greater than 100 µM. The TGI (OVCAR-3 ovarian) was greater than 100 µM, the TGI (OVCAR-4 ovarian) was greater than 100 µM and the TGI (OVCAR-5 ovarian) was greater than 100 µM. It also gave a TGI (OVCAR-8 ovarian) greater than 100 µM, a TGI (PC-3 prostate) greater than 100 µM and a TGI (RPMI-8226 leukemia) greater than 100 µM. The TGI (RXF 393 renal) was greater than 100 µM, the TGI (SF-268 CNS) was greater than 100 µM and the TGI (SF-295 CNS) was greater than 100 µM. The TGI (SF-539 CNS) was greater than 100 µM, the TGI (SK-MEL-2 melanoma) was greater than 100 µM and the TGI (SK-MEL-28 melanoma) was greater than 100 µM. For the same compound, the TGI (SK-MEL-5 melanoma) was greater than 100 µM, the TGI (SK-OV-3 ovarian) was greater than 100 µM and the TGI (SNB-19 CNS) was greater than 100 µM. The TGI (SNB-75 CNS) was greater than 100 µM, the TGI (SR leukemia) was greater than 100 µM and the TGI (SW-620 colon) was greater than 100 µM. The TGI (TK-10 renal) was greater than 100 µM, the TGI (U251 CNS) was greater than 100 µM and the TGI (UACC-257 melanoma) was greater than 100 µM. The TGI (UACC-62 melanoma) was greater than 100 µM and the TGI (UO-31 renal) was greater than 100 µM.
`COC(=O)CC1(O)C(C=C(C)C)C(C(=O)OC)C(=O)C(C(=O)OC)C1C(=O)OC` (configuration not stated) showed a TGI (786-0 renal) greater than 100 µM, a TGI (A498 renal) greater than 100 µM and a TGI (A549 NSCLC) greater than 100 µM. The TGI (ACHN renal) was greater than 100 µM, the TGI (BT-549 breast) was greater than 100 µM and the TGI (CAKI-1 renal) was greater than 100 µM. The TGI (CCRF-CEM leukemia) was greater than 100 µM, the TGI (COLO 205 colon) was greater than 100 µM and the TGI (DU-145 prostate) was greater than 100 µM. The TGI (EKVX NSCLC) was greater than 100 µM, the TGI (HCC-2998 colon) was greater than 100 µM and the TGI (HCT-116 colon) was greater than 100 µM. For the same compound, the TGI (HCT-15 colon) was greater than 100 µM, the TGI (HL-60(TB) leukemia) was greater than 100 µM and the TGI (HOP-62 NSCLC) was greater than 100 µM. The TGI (HOP-92 NSCLC) was greater than 100 µM, the TGI (HS 578T breast) was greater than 100 µM and the TGI (HT29 colon) was greater than 100 µM. For the same compound, the TGI (IGROV1 ovarian) was greater than 100 µM, the TGI (K-562 leukemia) was greater than 100 µM and the TGI (KM12 colon) was greater than 100 µM. For the same compound, the TGI (LOX IMVI melanoma) was greater than 100 µM, the TGI (M14 melanoma) was greater than 100 µM and the TGI (MALME-3M melanoma) was greater than 100 µM. It also gave a TGI (MCF7 breast) greater than 100 µM, a TGI (MDA-MB-231 breast) greater than 100 µM and a TGI (MDA-MB-435) greater than 100 µM. It also gave a TGI (MDA-N) greater than 100 µM, a TGI (MOLT-4 leukemia) greater than 100 µM and a TGI (NCI-H226 lung) greater than 100 µM. It also gave a TGI (NCI-H23 lung) greater than 100 µM, a TGI (NCI-H460 lung) greater than 100 µM and a TGI (NCI-H522 lung) greater than 100 µM. The TGI (NCI/ADR-RES ovarian) was greater than 100 µM, the TGI (OVCAR-3 ovarian) was greater than 100 µM and the TGI (OVCAR-4 ovarian) was greater than 100 µM. It also gave a TGI (OVCAR-5 ovarian) greater than 100 µM, a TGI (OVCAR-8 ovarian) greater than 100 µM and a TGI (PC-3 prostate) greater than 100 µM. The TGI (RPMI-8226 leukemia) was greater than 100 µM, the TGI (RXF 393 renal) was greater than 100 µM and the TGI (SF-268 CNS) was greater than 100 µM. It also gave a TGI (SF-295 CNS) greater than 100 µM, a TGI (SF-539 CNS) greater than 100 µM and a TGI (SK-MEL-2 melanoma) greater than 100 µM. The TGI (SK-MEL-28 melanoma) was greater than 100 µM, the TGI (SK-MEL-5 melanoma) was greater than 100 µM and the TGI (SK-OV-3 ovarian) was greater than 100 µM. For the same compound, the TGI (SN12C renal) was greater than 100 µM, the TGI (SNB-19 CNS) was greater than 100 µM and the TGI (SR leukemia) was greater than 100 µM. It also gave a TGI (SW-620 colon) greater than 100 µM, a TGI (TK-10 renal) greater than 100 µM and a TGI (U251 CNS) greater than 100 µM. For the same compound, the TGI (UACC-257 melanoma) was greater than 100 µM, the TGI (UACC-62 melanoma) was greater than 100 µM and the TGI (UO-31 renal) was greater than 100 µM.
